What was measured:
[1] = biological target: T1, Human idoleamine 2,3-dioxygenase (IDO) (Homo sapiens, UniProt P14902); assay: Human indoleamine 2,3-dioxygenase (IDO) enzyme assay; assay type: biochemical; settings: 95 nM IDO, 2 mM D-Trp, pH 6.5, room temperature, absorbance at 321 nm
T1 construct: His tag (N); made in house; host or cells: E. coli
Protocol: Human idoleamine 2,3-dioxygenase (IDO) with an N-terminal His tag was expressed in E. coli and purified to homogeneity. IDO catalyzes the oxidative cleavage of the pyrrole ring of the indole nucleus of tryptophan to yield N′-formylkynurenine. The assays were performed at room temperature as described in the literature using 95 nM IDO and 2 mM D-Trp in the presence of 20 mM ascorbate, 5 μM methylene blue and 0.2 mg/mL catalase in 50 mM potassium phosphate buffer (pH 6.5). The initial reaction rates were recorded by continuously following the absorbance increase at 321 nm due to the formation of N′-formylkynurenine. […] The symbol “+” indicates IC50<1000 […].

[2] = tested on: LLC tumors; settings: LLC tumors in C57Bl/6 mice, versus placebo (Friberg et al); cited from earlier work
[3] = tested on: P815 tumor; settings: pre-immunized immune-competent mice, P815 (Uyttenhove et al); cited from earlier work

T1 sequence (P14902 whole entry): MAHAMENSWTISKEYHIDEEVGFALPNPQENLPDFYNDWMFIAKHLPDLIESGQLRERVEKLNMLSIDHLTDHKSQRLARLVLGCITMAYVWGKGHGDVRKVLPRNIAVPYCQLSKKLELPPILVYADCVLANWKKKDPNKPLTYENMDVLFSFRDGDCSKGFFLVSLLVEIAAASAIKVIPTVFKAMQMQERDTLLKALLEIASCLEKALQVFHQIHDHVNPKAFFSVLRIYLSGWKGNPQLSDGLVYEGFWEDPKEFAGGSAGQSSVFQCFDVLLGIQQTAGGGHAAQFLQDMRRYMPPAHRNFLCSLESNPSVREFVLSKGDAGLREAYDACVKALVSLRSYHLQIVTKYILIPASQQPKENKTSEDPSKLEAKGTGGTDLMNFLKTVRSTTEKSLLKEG

IC50 [1] [µM]	Structure (SMILES)	formation of tumors [2]	growth of tumors [3]
> 10	ON=C(Nc1ccc(F)c(Cl)c1)c1cc(OCCCN2CCCC2)no1 [Example 2, N-(3-Chloro-4-fluorophenyl)-N′-hydroxy-3-(3-pyrrolidin-1-ylpropoxy)isoxazole-5-carboximidamide]	–	–
> 10	CC(=O)Nc1cc(C(=NO)NCc2cc(Cl)ccc2C)on1 [Example 22, N-[5-[(5-chloro-2-methylbenzyl)amino](hydroxyimino)methyl]isoxazol-3-ylacetamide]	–	–
–	Cn1cc(C[C@H](N)C(=O)O)c2ccccc21 [Example 1-MT, 1-methyl-tryptophan]	markedly delayed	inhibited
> 10	ON=C(Nc1ccc(F)c(Cl)c1)c1cc(N2CCOCC2)no1 [Example 3, N-(3-Chloro-4-fluorophenyl)-N′-hydroxy-3-morpholin-ylisoxazole-5-carboximidamide]	–	–

Reference: US8507541B2, “N-hydroxyamidinoheterocycles as modulators of indoleamine 2,3-dioxygenase” (Incyte Corporation, priority 2006, dated 2013)
